Converted amounts (≈) assume the structure as drawn.
Tests used:
Assay in all cases: Antibacterial activity, MIC
Assay type in all cases: cell-based
[1] = tested on: Salmonella typhimurium ATCC 14028; details: Salmonella enterica; ATCC 14028; agar two-fold dilution, 37° C., 20 hours; read-out: MIC
Procedure, shortened: (§1)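 Incubation at 37 °C for 20 h followed inoculation of 2 μl standard strain (10^7 CFU/ml) onto agar carrying the compound. Compound was incorporated into Mueller-Hinton agar as two-fold serial dilutions.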

[2] = tested on: Escherichia coli ATCC 25922; details: ATCC25922, agar two-fold dilution, 37° C., 20 hours
Procedure, shortened: as §1

[3] = tested on: Bacillus cereus ATCC 11778; details: ATCC11778, ATCC 11778, agar two-fold dilution, 37° C., 20 hours, read-out: MIC
Procedure, shortened: as §1

[4] = tested on: Pseudomonas aeruginosa ATCC 10145; details: ATCC10145, ATCC 10145, agar two-fold dilution, 37° C., 20 hours, read-out: MIC
Procedure, shortened: as §1

[5] = tested on: Streptococcus faecalis ATCC 29212; details: Enterococcus faecalis, ATCC29212; ATCC 29212; agar two-fold dilution, 37° C., 20 hours; read-out: MIC
Procedure, shortened: as §1

[6] = tested on: Serratia marcescens ATCC 27117; details: ATCC27117, ATCC 27117, agar two-fold dilution, 37° C., 20 hours, read-out: MIC
Procedure, shortened: as §1

[7] = tested on: Citrobacter freundii ATCC 8090; details: ATCC8090, ATCC 8090, agar two-fold dilution, 37° C., 20 hours, read-out: MIC
Procedure, shortened: as §1

[8] = tested on: Acinetobacter calcoaceticus ATCC 15473; details: ATCC15473, ATCC 15473, agar two-fold dilution, 37° C., 20 hours, read-out: MIC
Procedure, shortened: as §1

[9] = tested on: Shigella flexneri ATCC 11836; details: ATCC11836, agar two-fold dilution, 37° C., 20 hours
Procedure, shortened: as §1

[10] = tested on: Proteus vulgaris ATCC 6059; details: ATCC6059, ATCC 6059, agar two-fold dilution, 37° C., 20 hours, read-out: MIC
Procedure, shortened: as §1

[11] = tested on: Micrococcus luteus ATCC 9341; details: ATCC9341, ATCC 9341, agar two-fold dilution, 37° C., 20 hours, read-out: MIC
Procedure, shortened: as §1

[12] = tested on: Enterobacter aerogenes ATCC 29751; details: Klebsiella aerogenes, ATCC29751; ATCC 29751; agar two-fold dilution, 37° C., 20 hours; read-out: MIC
Procedure, shortened: as §1

[13] = tested on: Providencia rettgeri ATCC 9250; details: ATCC9250, agar two-fold dilution, 37° C., 20 hours
Procedure, shortened: as §1

[14] = tested on: Staphylococcus aureus ATCC 10537; details: ATCC10537, ATCC 10537, agar two-fold dilution, 37° C., 20 hours, read-out: MIC
Procedure, shortened: as §1

[15] = tested on: Bacillus megaterium ATCC 9885; details: Priestia megaterium, ATCC9885; ATCC 9885; agar two-fold dilution, 37° C., 20 hours; read-out: MIC
Procedure, shortened: as §1

[16] = tested on: Proteus mirabilis ATCC 25933; details: ATCC25933, ATCC 25933, agar two-fold dilution, 37° C., 20 hours, read-out: MIC
Procedure, shortened: as §1

[17] = tested on: Staphylococcus aureus ATCC 6538p; details: ATCC6538P, ATCC 6538p, agar two-fold dilution, 37° C., 20 hours, read-out: MIC
Procedure, shortened: as §1

[18] = tested on: Klebsiella pneumoniae ATCC 10031; details: ATCC10031, ATCC 10031, agar two-fold dilution, 37° C., 20 hours, read-out: MIC
Procedure, shortened: as §1

[19] = tested on: Pseudomonas aeruginosa ATCC 27853; details: ATCC27853, ATCC 27853, agar two-fold dilution, 37° C., 20 hours, read-out: MIC
Procedure, shortened: as §1

[20] = tested on: Morganella morganii ATCC 8076h; details: ATCC8076H, agar two-fold dilution, 37° C., 20 hours
Procedure, shortened: as §1

[21] = tested on: Staphylococcus epidermidis ATCC 12228; details: ATCC12228, ATCC 12228, agar two-fold dilution, 37° C., 20 hours, read-out: MIC
Procedure, shortened: as §1

[22] = tested on: Enterobacter cloacae ATCC 27508; details: ATCC27508, ATCC 27508, agar two-fold dilution, 37° C., 20 hours, read-out: MIC
Procedure, shortened: as §1

[23] = tested on: Pseudomonas aeruginosa ATCC 25619; details: ATCC25619, ATCC 25619, agar two-fold dilution, 37° C., 20 hours, read-out: MIC
Procedure, shortened: as §1

[24] = tested on: Shigella sonnei ATCC 11060; details: ATCC11060, ATCC 11060, agar two-fold dilution, 37° C., 20 hours, read-out: MIC
Procedure, shortened: as §1

[25] = tested on: Escherichia coli ATCC 10536; details: ATCC10536, agar two-fold dilution, 37° C., 20 hours
Procedure, shortened: as §1

SMILES	MIC [1] [µg/mL]	MIC [2] [µg/mL]	MIC [3] [µg/mL]	MIC [4] [µg/mL]	MIC [5] [µg/mL]	MIC [6] [µg/mL]	MIC [7] [µg/mL]	MIC [8] [µg/mL]	MIC [9] [µg/mL]	MIC [10] [µg/mL]	MIC [11] [µg/mL]	MIC [12] [µg/mL]	MIC [13] [ng/mL]	MIC [14] [µg/mL]	MIC [15] [µg/mL]	MIC [16] [µg/mL]	MIC [17] [µg/mL]	MIC [18] [µg/mL]	MIC [19] [µg/mL]	MIC [20] [µg/mL]	also measured
CC[n+]1c(N)cc(N)nc1SCC1=C(C(=O)[O-])N2C(=O)C(NC(=O)/C(=N\OC(C)(C)C(=O)O)c3nsc(N)n3)C2SC1 (stereo not drawn) [Compound I-27]	0.5 (≈ 0.783 µM)	0.13 (≈ 0.204 µM)	> 128	4 (≈ 6.26 µM)	> 128	0.25 (≈ 0.391 µM)	0.25 (≈ 0.391 µM)	8 (≈ 12.5 µM)	0.25 (≈ 0.391 µM)	0.13 (≈ 0.204 µM)	0.5 (≈ 0.783 µM)	2 (≈ 3.13 µM)	≤ 8	4 (≈ 6.26 µM)	1 (≈ 1.57 µM)	0.13 (≈ 0.204 µM)	8 (≈ 12.5 µM)	0.063 (≈ 0.0986 µM)	2 (≈ 3.13 µM)	≤ 0.008	MIC [21]: 4 µg/mL (≈ 6.26 µM); MIC [22]: 0.063 µg/mL (≈ 0.0986 µM); MIC [23]: 2 µg/mL (≈ 3.13 µM); MIC [24]: 0.13 µg/mL (≈ 0.204 µM); MIC [25]: 0.13 µg/mL (≈ 0.204 µM)
CCC[n+]1c(N)cc(N)nc1SCC1=C(C(=O)[O-])N2C(=O)C(NC(=O)/C(=N\OC(C)(C)C(=O)O)c3nsc(N)n3)C2SC1 (stereo not drawn) [Compound I-28]	0.5 (≈ 0.766 µM)	0.13 (≈ 0.199 µM)	128 (≈ 196 µM)	4 (≈ 6.13 µM)	> 128	0.25 (≈ 0.383 µM)	0.13 (≈ 0.199 µM)	8 (≈ 12.3 µM)	0.063 (≈ 0.0965 µM)	0.25 (≈ 0.383 µM)	0.5 (≈ 0.766 µM)	4 (≈ 6.13 µM)	≤ 8	4 (≈ 6.13 µM)	0.25 (≈ 0.383 µM)	0.13 (≈ 0.199 µM)	8 (≈ 12.3 µM)	0.13 (≈ 0.199 µM)	2 (≈ 3.06 µM)	≤ 0.008	MIC [21]: 4 µg/mL (≈ 6.13 µM); MIC [22]: 0.031 µg/mL (≈ 0.0475 µM); MIC [23]: 2 µg/mL (≈ 3.06 µM); MIC [24]: 0.13 µg/mL (≈ 0.199 µM); MIC [25]: 0.13 µg/mL (≈ 0.199 µM)
CCCC[n+]1c(N)cc(N)nc1SCC1=C(C(=O)[O-])N2C(=O)C(NC(=O)/C(=N\OC(C)(C)C(=O)O)c3nsc(N)n3)C2SC1 (stereo not drawn) [Compound I-29]	0.5 (≈ 0.75 µM)	0.25 (≈ 0.375 µM)	128 (≈ 192 µM)	8 (≈ 12 µM)	> 128	0.5 (≈ 0.75 µM)	0.25 (≈ 0.375 µM)	32 (≈ 48 µM)	0.13 (≈ 0.195 µM)	1 (≈ 1.5 µM)	0.5 (≈ 0.75 µM)	1 (≈ 1.5 µM)	≤ 8	4 (≈ 6 µM)	0.25 (≈ 0.375 µM)	1 (≈ 1.5 µM)	8 (≈ 12 µM)	0.13 (≈ 0.195 µM)	2 (≈ 3 µM)	0.016 (≈ 0.024 µM)	MIC [21]: 8 µg/mL (≈ 12 µM); MIC [22]: 0.063 µg/mL (≈ 0.0945 µM); MIC [23]: 4 µg/mL (≈ 6 µM); MIC [24]: 0.5 µg/mL (≈ 0.75 µM); MIC [25]: 0.25 µg/mL (≈ 0.375 µM)
CC(C)(O/N=C(\C(=O)NC1C(=O)N2C(C(=O)[O-])=C(CSc3nc(N)cc(N)[n+]3-c3ccccc3)CSC12)c1csc(N)n1)C(=O)O (stereo not drawn) [Compound I-35]	0.5 (≈ 0.729 µM)	0.25 (≈ 0.365 µM)	16 (≈ 23.3 µM)	4 (≈ 5.83 µM)	> 128	0.5 (≈ 0.729 µM)	0.25 (≈ 0.365 µM)	16 (≈ 23.3 µM)	0.13 (≈ 0.19 µM)	0.13 (≈ 0.19 µM)	0.25 (≈ 0.365 µM)	0.5 (≈ 0.729 µM)	31 (≈ 0.0452 µM)	2 (≈ 2.92 µM)	0.5 (≈ 0.729 µM)	0.25 (≈ 0.365 µM)	4 (≈ 5.83 µM)	0.13 (≈ 0.19 µM)	2 (≈ 2.92 µM)	≤ 0.008	MIC [21]: 2 µg/mL (≈ 2.92 µM); MIC [22]: 0.063 µg/mL (≈ 0.0919 µM); MIC [23]: 2 µg/mL (≈ 2.92 µM); MIC [24]: 0.25 µg/mL (≈ 0.365 µM); MIC [25]: 0.25 µg/mL (≈ 0.365 µM)
CC(C)(O/N=C(\C(=O)NC1C(=O)N2C(C(=O)[O-])=C(CSc3nc(N)cc(N)[n+]3-c3ccc(O)cc3)CSC12)c1csc(N)n1)C(=O)O (stereo not drawn) [Compound I-36]	0.5 (≈ 0.712 µM)	0.25 (≈ 0.356 µM)	32 (≈ 45.6 µM)	2 (≈ 2.85 µM)	> 128	0.5 (≈ 0.712 µM)	0.25 (≈ 0.356 µM)	16 (≈ 22.8 µM)	0.063 (≈ 0.0898 µM)	0.13 (≈ 0.185 µM)	0.25 (≈ 0.356 µM)	2 (≈ 2.85 µM)	≤ 8	2 (≈ 2.85 µM)	0.13 (≈ 0.185 µM)	0.13 (≈ 0.185 µM)	4 (≈ 5.7 µM)	0.13 (≈ 0.185 µM)	1 (≈ 1.42 µM)	≤ 0.008	MIC [21]: 2 µg/mL (≈ 2.85 µM); MIC [22]: 0.063 µg/mL (≈ 0.0898 µM); MIC [23]: 1 µg/mL (≈ 1.42 µM); MIC [24]: 0.25 µg/mL (≈ 0.356 µM); MIC [25]: 0.25 µg/mL (≈ 0.356 µM)
CCO/N=C(\C(=O)NC1C(=O)N2C(C(=O)[O-])=C(CSc3nc(N)cc(N)[n+]3-c3ccc(Cl)cc3)CSC12)c1csc(N)n1 (stereo not drawn) [Compound I-40]	2 (≈ 3.02 µM)	0.5 (≈ 0.755 µM)	16 (≈ 24.2 µM)	16 (≈ 24.2 µM)	32 (≈ 48.3 µM)	1 (≈ 1.51 µM)	1 (≈ 1.51 µM)	16 (≈ 24.2 µM)	0.25 (≈ 0.378 µM)	0.5 (≈ 0.755 µM)	0.016 (≈ 0.0242 µM)	2 (≈ 3.02 µM)	≤ 8	0.25 (≈ 0.378 µM)	0.063 (≈ 0.0951 µM)	0.5 (≈ 0.755 µM)	0.5 (≈ 0.755 µM)	0.031 (≈ 0.0468 µM)	8 (≈ 12.1 µM)	0.016 (≈ 0.0242 µM)	MIC [21]: 0.13 µg/mL (≈ 0.196 µM); MIC [22]: 0.13 µg/mL (≈ 0.196 µM); MIC [23]: 2 µg/mL (≈ 3.02 µM); MIC [24]: 0.5 µg/mL (≈ 0.755 µM); MIC [25]: 0.5 µg/mL (≈ 0.755 µM)

Reference: patent US5202315A, “Cephalosporin compounds” (Lucky, Ltd., priority 1989, dated 1993)
